Calls of active or inactive are those of the source. A value given as a limit tells only on which side of the number the result lay.

Common to all, as to format: functional
The nature of experiment [1]: NIH-3T3 fibroblast cytotoxicity, dose response, cytotoxicity control, cell-based, fluorescence, Alamar Blue, secondary assay (AID 2327).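 Also: NIH-3T3 mouse fibroblasts cultured with fluconazole at 8 µg/mL.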 Background: Resazurin is reduced to fluorescent resorufin, in cell work by metabolically active cells.
Experiment [2] has as its target Dual specificity protein kinase CLK2 (Homo sapiens, UniProt P49760).
For experiment [3], the target named is ALK tyrosine kinase receptor (Homo sapiens, UniProt Q9UM73).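 Also: ALK tested as one member of a kinase panel screen.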
The target of experiment [4] is Calcium/calmodulin-dependent protein kinase type II subunit gamma (Homo sapiens, UniProt Q13555).
For experiment [5], the target named is Serine/threonine-protein kinase 17A (Homo sapiens, UniProt Q9UEE5).
Experiment [6] concerns the target Death-associated protein kinase 3 (Homo sapiens, UniProt O43293).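 Also: measured as one member of a kinome-wide profiling panel.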
Another experiment concerns the target Activin receptor type-1 (Homo sapiens, UniProt Q04771). The experiment can be described thus: Navigating the Kinome. Panel member name: ACVR1.
Experiment [7] concerns the target Mitogen-activated protein kinase 8 (Homo sapiens, UniProt P45983).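 Also: value comes from one member of a kinome-wide kinase profiling panel.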
The target in experiment [8] is Serine/threonine-protein kinase pim-1 (Homo sapiens, UniProt P11309).
Experiment [9] addresses Cell division cycle 7-related protein kinase (Homo sapiens, UniProt O00311).
Experiment [10] addresses Mast/stem cell growth factor receptor Kit (Homo sapiens, UniProt P10721).
The target of experiment [11] is Mitogen-activated protein kinase 9 (Homo sapiens, UniProt P45984).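 Also: value from a kinome panel profiling assay, MAPK9 panel entry.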
Experiment [12] has as its target Serine/threonine-protein kinase TAO1 (Homo sapiens, UniProt Q7L7X3).
The target in experiment [13] is Proto-oncogene tyrosine-protein kinase ROS (Homo sapiens, UniProt P08922).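 Also: ROS1 tested as one member of a kinome-wide kinase panel.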
Experiment [14] deals with MAP/microtubule affinity-regulating kinase 3 (Homo sapiens, UniProt P27448).
Experiment [15] concerns the target High affinity nerve growth factor receptor (Homo sapiens, UniProt P04629).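 Also: NTRK1 tested as one member of a kinome-wide profiling panel.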
Experiment [16] concerns the target Serine/threonine-protein kinase pim-3 (Homo sapiens, UniProt Q86V86).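 Also: value obtained as one member of a broad kinase panel profiling effort.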
In experiment [17] the target is Non-receptor tyrosine-protein kinase TYK2 (Homo sapiens, UniProt P29597).
The target of experiment [18] is Proto-oncogene tyrosine-protein kinase Src (Homo sapiens, UniProt P12931).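 Also: SRC entry within a kinome-wide kinase profiling panel.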
Experiment [19] addresses Glycogen synthase kinase-3 alpha (Homo sapiens, UniProt P49840).
Experiment [20] concerns the target Hepatocyte growth factor receptor (Homo sapiens, UniProt P08581).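 Also: kinase panel profiling across the kinome, with MET as the panel member.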
Experiment [21] addresses Receptor tyrosine-protein kinase erbB-2 (Homo sapiens, UniProt P04626). Kind of experiment: Navigating the Kinome. Panel member name: ERBB2.
For experiment [22], the target named is MAP kinase-activated protein kinase 3 (Homo sapiens, UniProt Q16644).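 Also: value comes from a kinome-wide profiling panel in which MAPKAPK3 is one of the panel members.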
Experiment [23] has as its target Serine/threonine-protein kinase Chk1 (Homo sapiens, UniProt O14757).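 Also: measured as one member of a kinome-wide kinase profiling panel.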
Experiment [24] deals with Vascular endothelial growth factor receptor 2 (Homo sapiens, UniProt P35968).
The target of experiment [25] is Cyclin-dependent kinase 5 (Homo sapiens, UniProt Q00535).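 Also: CDK5 measured as one member of a kinase profiling panel.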
Another experiment has as its target Misshapen-like kinase 1 (Homo sapiens, UniProt Q8N4C8).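 Also: kinome panel screen with MINK as the panel member.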
For another experiment, the target named is Focal adhesion kinase 1 (Homo sapiens, UniProt Q05397).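 Also: measured as one member of a kinome panel.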
Experiment [26] deals with Interleukin-1 receptor-associated kinase 1 (Homo sapiens, UniProt P51617).
Experiment [27] addresses Cyclin-dependent kinase 19 (Homo sapiens, UniProt Q9BWU1). Kind of experiment: Navigating the Kinome. Panel member name: CDC2L6.
The target of experiment [28] is Tyrosine-protein kinase Fer (Homo sapiens, UniProt P16591).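 Also: FER tested as one member of a kinome panel.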
Tyrosine-protein kinase Fer, sequence (P16591 whole entry): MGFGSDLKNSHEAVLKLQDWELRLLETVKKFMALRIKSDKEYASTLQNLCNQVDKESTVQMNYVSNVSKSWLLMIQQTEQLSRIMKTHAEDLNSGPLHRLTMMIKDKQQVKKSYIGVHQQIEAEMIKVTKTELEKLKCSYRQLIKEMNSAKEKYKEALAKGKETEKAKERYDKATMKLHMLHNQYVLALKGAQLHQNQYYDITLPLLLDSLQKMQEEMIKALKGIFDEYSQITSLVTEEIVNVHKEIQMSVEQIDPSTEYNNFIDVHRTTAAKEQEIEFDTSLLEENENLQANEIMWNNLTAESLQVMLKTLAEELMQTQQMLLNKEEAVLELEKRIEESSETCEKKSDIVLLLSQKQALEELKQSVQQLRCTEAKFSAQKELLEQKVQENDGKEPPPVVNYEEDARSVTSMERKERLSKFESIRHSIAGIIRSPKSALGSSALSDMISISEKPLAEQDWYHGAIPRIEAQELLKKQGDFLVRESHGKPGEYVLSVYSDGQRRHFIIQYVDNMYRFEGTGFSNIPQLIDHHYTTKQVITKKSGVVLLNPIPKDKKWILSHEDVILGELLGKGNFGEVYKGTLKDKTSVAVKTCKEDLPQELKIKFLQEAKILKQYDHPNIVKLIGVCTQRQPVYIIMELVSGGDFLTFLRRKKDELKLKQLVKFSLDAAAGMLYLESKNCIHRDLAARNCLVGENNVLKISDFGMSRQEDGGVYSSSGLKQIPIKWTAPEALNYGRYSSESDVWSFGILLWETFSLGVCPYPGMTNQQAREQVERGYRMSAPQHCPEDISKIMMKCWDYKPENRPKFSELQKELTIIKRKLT
The target in experiment [29] is Homeodomain-interacting protein kinase 4 (Homo sapiens, UniProt Q8NE63).
Homeodomain-interacting protein kinase 4, sequence (Q8NE63 whole entry): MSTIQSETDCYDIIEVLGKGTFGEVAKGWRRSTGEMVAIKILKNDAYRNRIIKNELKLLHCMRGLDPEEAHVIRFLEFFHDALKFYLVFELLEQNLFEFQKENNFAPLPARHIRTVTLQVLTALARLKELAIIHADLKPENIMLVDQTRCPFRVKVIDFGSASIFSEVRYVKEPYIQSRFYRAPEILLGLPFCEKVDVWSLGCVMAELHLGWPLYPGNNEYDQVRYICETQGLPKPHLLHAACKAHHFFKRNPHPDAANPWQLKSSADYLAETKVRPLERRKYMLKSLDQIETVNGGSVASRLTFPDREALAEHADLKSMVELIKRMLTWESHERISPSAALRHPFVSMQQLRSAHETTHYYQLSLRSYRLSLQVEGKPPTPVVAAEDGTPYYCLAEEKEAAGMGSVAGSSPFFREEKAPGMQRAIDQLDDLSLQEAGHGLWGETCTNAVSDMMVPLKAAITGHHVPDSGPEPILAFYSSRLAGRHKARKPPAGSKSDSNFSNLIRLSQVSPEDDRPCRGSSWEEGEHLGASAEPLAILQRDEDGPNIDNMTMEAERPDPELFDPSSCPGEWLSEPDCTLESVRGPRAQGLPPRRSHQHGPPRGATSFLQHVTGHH
In experiment [30] the target is Cyclin-dependent kinase 1 (Homo sapiens, UniProt P06493).
The target in experiment [31] is Serine/threonine-protein kinase pim-2 (Homo sapiens, UniProt Q9P1W9).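 Also: value comes from a broad kinase panel profiling study in which PIM2 was one of the panel members.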
The target of experiment [32] is Serine/threonine-protein kinase DCLK1 (Homo sapiens, UniProt O15075).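 Also: affinity for DCLK1 (listed as DCAMKL1) measured as one member of a kinome-wide kinase profiling panel.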
The target in experiment [33] is STE20-like serine/threonine-protein kinase (Homo sapiens, UniProt Q9H2G2).
The target in experiment [34] is Fibroblast growth factor receptor 3 (Homo sapiens, UniProt P22607).
Experiment [35] deals with Serine/threonine-protein kinase PLK1 (Homo sapiens, UniProt P53350).
Experiment [36] addresses BDNF/NT-3 growth factors receptor (Homo sapiens, UniProt Q16620).
The target of experiment [37] is Receptor tyrosine-protein kinase erbB-4 (Homo sapiens, UniProt Q15303).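 Also: ERBB4 member of a kinome-wide kinase profiling panel.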
Receptor tyrosine-protein kinase erbB-4, sequence (Q15303 whole entry): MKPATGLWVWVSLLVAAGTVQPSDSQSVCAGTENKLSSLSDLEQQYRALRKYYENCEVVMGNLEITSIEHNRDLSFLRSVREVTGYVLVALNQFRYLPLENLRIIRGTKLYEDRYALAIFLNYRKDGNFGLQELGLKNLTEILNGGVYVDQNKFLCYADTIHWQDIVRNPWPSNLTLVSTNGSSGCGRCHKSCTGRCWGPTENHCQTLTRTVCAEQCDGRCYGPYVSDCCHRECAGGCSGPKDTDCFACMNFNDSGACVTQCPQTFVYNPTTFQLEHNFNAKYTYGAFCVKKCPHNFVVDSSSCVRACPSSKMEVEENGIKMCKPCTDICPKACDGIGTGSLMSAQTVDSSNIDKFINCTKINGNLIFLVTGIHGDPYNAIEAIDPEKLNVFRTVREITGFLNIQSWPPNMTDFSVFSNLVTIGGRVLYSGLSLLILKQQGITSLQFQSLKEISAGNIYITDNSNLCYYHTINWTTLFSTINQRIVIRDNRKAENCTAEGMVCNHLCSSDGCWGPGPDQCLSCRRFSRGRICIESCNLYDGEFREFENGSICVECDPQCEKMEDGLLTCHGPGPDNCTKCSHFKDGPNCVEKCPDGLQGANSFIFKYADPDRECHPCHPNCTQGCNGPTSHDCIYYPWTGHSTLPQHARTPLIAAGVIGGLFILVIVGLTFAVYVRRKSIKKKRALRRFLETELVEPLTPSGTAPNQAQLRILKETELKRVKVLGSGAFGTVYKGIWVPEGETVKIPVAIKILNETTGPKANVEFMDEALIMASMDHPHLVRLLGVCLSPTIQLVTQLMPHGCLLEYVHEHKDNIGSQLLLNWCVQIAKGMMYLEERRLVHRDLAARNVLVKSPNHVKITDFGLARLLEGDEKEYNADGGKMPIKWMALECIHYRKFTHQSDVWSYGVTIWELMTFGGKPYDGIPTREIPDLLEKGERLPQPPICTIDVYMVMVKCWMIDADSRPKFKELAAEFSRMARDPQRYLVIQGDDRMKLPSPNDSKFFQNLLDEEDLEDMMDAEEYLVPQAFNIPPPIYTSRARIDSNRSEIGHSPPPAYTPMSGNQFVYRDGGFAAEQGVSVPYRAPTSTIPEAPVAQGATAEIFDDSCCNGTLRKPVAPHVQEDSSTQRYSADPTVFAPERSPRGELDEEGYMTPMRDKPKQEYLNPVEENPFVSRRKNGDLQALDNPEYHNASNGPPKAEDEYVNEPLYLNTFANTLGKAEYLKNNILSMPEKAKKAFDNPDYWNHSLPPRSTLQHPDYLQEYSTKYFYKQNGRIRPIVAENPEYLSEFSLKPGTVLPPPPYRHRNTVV
The target in experiment [38] is cAMP-dependent protein kinase catalytic subunit alpha (Homo sapiens, UniProt P17612).
The target in experiment [39] is Dual specificity protein kinase CLK4 (Homo sapiens, UniProt Q9HAZ1).
The target in experiment [40] is Mitogen-activated protein kinase kinase kinase kinase 4 (Homo sapiens, UniProt O95819).
Experiment [41] concerns the target Serine/threonine-protein kinase MRCK alpha (Homo sapiens, UniProt Q5VT25).
In experiment [42] the target is Macrophage colony-stimulating factor 1 receptor (Homo sapiens, UniProt P07333).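 Also: value comes from the Navigating the Kinome screening panel, CSF1R member.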
Experiment [43] deals with Tyrosine-protein kinase FRK (Homo sapiens, UniProt P42685).
Tyrosine-protein kinase FRK, sequence (P42685 whole entry): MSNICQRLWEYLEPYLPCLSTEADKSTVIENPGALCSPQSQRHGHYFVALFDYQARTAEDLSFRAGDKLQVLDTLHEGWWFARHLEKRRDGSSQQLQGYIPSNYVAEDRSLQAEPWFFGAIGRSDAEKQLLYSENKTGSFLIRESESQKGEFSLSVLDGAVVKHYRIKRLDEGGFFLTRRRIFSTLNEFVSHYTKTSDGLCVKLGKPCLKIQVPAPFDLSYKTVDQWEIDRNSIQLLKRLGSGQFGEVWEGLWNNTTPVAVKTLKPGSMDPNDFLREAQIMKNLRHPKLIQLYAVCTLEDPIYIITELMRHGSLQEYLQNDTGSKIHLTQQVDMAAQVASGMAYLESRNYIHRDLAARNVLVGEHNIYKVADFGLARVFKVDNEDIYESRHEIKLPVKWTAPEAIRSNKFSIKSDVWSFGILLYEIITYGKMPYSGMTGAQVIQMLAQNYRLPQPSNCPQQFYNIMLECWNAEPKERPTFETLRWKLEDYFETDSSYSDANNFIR
The target of experiment [44] is Serine/threonine-protein kinase 3 (Homo sapiens, UniProt Q13188).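 Also: measured as one member of a kinome-wide kinase panel.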

Misshapen-like kinase 1, sequence (Q8N4C8 whole entry): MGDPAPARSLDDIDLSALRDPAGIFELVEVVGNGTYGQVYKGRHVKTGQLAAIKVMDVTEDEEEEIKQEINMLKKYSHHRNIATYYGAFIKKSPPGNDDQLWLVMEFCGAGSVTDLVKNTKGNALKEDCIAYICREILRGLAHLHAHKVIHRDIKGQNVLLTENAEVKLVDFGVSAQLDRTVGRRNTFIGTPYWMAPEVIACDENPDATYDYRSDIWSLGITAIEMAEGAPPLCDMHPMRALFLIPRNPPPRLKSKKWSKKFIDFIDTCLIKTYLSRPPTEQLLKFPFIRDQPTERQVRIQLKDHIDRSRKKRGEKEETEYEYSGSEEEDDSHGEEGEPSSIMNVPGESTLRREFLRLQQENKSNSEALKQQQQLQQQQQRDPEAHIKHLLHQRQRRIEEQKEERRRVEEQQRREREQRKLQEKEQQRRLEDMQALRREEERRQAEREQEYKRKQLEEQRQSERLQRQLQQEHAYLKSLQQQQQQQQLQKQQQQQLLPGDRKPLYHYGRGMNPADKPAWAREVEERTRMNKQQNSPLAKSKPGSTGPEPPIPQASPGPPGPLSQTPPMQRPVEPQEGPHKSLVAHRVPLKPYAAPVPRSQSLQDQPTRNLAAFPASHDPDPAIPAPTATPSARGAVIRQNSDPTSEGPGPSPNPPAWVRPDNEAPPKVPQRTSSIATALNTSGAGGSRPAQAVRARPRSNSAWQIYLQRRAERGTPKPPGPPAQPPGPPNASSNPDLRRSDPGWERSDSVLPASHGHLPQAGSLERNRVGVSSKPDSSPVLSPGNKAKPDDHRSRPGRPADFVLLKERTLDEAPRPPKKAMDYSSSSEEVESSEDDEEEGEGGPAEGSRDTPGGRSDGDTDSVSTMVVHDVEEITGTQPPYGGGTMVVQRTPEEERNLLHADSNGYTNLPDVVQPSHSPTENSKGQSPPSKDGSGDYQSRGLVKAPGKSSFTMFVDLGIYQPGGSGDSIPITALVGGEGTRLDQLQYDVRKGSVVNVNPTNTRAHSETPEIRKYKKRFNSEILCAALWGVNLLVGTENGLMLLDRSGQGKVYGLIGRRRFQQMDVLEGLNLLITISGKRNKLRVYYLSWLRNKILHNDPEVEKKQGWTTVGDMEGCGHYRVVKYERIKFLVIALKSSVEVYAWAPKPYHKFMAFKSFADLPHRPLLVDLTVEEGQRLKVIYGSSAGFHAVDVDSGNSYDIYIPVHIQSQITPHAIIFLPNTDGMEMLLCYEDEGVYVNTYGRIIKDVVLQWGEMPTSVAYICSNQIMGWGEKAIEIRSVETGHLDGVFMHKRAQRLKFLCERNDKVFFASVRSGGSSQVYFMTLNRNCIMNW
Mitogen-activated protein kinase 8, sequence (P45983 whole entry): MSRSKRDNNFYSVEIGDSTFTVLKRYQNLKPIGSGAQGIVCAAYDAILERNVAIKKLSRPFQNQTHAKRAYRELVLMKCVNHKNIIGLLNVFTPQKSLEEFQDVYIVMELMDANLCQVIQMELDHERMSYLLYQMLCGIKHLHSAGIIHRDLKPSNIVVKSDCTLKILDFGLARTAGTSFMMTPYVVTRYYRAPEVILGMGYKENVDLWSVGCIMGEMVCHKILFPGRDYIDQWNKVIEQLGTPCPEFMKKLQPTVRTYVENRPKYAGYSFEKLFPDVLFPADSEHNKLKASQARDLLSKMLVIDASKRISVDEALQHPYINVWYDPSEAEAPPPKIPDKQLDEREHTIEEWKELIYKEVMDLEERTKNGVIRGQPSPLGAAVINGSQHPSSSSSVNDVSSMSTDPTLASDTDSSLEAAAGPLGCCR

On to `CCCn1nc([N+](=O)[O-])c(C(C#N)c2nc3ccccc3s2)c(Cl)c1=O` (configuration not stated), for which the EC50 (in general, the concentration giving half of the maximal effect) in experiment [1] is > 160 µM (inactive).
As to `NCCCn1cc(-c2cc(-c3cc4ccccc4s3)c3[nH]ncc3c2)c2nc(N)ncc21`, the Ki (usually the dissociation constant of the complex between target and ligand, obtained from inhibition or displacement) in experiment [2] is > 2.51 µM (inactive); in experiment [3], > 3.98 µM (inactive); in experiment [4], 0.501 µM (active); in experiment [5] it was 0.0398 µM (active); in experiment [6], 0.0794 µM (active); at Activin receptor type-1 it was > 3.16 µM (inactive). The Ki in experiment [7] was > 2.51 µM (inactive); in experiment [8], > 3.16 µM (inactive); in experiment [9], 0.0126 µM (active); in [10], > 3.16 µM (inactive); in experiment [11] it was > 2 µM (inactive); in experiment [12], > 5.01 µM (inactive). Further, the inhibitory constant (Ki) in experiment [13] was 0.2 µM (active); in [14] it was 0.0631 µM (active); in experiment [15] it was > 2.51 µM (inactive); in experiment [16], 0.0316 µM (active); in experiment [17], > 2 µM (inactive); in [18], > 2 µM (inactive). Besides, the inhibition constant Ki is 0.126 µM (active) in [19]; > 2 µM (inactive) in [20]; > 1.58 µM (inactive) in experiment [21]; 1.58 µM (active) in experiment [22]; 1.26 µM (active) in experiment [23]; > 5.01 µM (inactive) in experiment [24]. The Ki in [25] was 1.58 µM (active); on Misshapen-like kinase 1 it was 0.1 µM (active); on Focal adhesion kinase 1, > 5.01 µM (inactive); in experiment [26] it was 1.26 µM (active); in experiment [27], 0.398 µM (active); in experiment [28], > 1.58 µM (inactive). Also, the inhibition constant (Ki) in [29] is 0.501 µM (active); in experiment [30], 0.0316 µM (active); in experiment [31] it was 0.1 µM (active); in experiment [32] it was 2.51 µM (active); in [33], 0.126 µM (active); in experiment [34], > 2 µM (inactive). For the same molecule, the Ki in [35] was > 7.94 µM (inactive); in experiment [36], > 3.98 µM (inactive); in experiment [37], > 3.98 µM (inactive); in experiment [38] it was 0.0398 µM (active); in experiment [39], 0.0316 µM (active); in experiment [40] it was > 3.16 µM (inactive). The inhibition constant (Ki) in experiment [41] is 0.631 µM (active); in [42], > 2.51 µM (inactive); in experiment [43], > 2.51 µM (inactive); in experiment [44], 0.501 µM (active).

Source of the values: ChEMBL document CHEMBL1201862, “PubChem BioAssay data set” (2004).
